Structures are written as SMILES. Where only a bound is given, the exact number is not on record here.

One may read the IC50 as the midpoint of a concentration-inhibition curve.

For this assay, the target named is T1, dihydrolipoamide acyltransferase (DlaT) (Mycobacterium tuberculosis, UniProt P9WIS7).
T1 sequence (P9WIS7 1-553): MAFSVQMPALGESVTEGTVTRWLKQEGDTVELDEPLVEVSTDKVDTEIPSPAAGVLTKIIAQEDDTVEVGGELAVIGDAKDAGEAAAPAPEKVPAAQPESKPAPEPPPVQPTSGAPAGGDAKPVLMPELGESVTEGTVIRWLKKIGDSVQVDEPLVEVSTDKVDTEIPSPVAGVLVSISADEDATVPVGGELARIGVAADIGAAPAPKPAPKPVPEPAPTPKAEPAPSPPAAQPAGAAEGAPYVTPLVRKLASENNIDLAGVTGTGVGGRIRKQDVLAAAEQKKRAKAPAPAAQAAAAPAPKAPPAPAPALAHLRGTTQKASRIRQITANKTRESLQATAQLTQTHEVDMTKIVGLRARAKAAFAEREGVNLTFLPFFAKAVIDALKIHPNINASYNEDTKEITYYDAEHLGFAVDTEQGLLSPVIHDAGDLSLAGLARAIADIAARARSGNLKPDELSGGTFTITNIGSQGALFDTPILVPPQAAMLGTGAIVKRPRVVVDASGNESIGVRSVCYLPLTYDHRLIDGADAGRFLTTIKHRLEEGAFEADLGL
The experiment in a line: DlaT inhibition (Dlat IC50); DTNB peroxidase assay with Lpd, DlaT and AhpD. The assay is classed as biochemical. As to conditions: Dlat IC50 category.
Take `Cc1ccc(-c2ccc(C=C3SC(=S)N(C4CCCC(C(=O)O)C4)C3=O)cc2)cc1` (centres unmarked) [Compound C72, 3-{5-[1-(4′-methyl-biphenyl-4-yl)-methylidene]-4-oxo-2-thioxo-thiazolidin-3-yl}-cyclohexanecarboxylic acid]: the IC50 was < 10 µM.
In the case of `Cc1ccc(-c2ccc(C=C3SC(=S)N(C4CCC(C(=O)O)CC4)C3=O)cc2)cc1` (centres unmarked) [Compound C73, 4-{5-[1-(4′-methyl-biphenyl-4-yl)-methylidene]-4-oxo-2-thioxo-thiazolidin-3-yl}-cyclohexanecarboxylic acid] it was < 10 µM; in that of `COc1ccc(C)cc1-c1ccc(C=C2SC(=S)N(C3CCCC(C(=O)O)C3)C2=O)o1` (centres unmarked) [Compound C74, 3-{5-[5-(2-Methoxy-5-methyl-phenyl)-furan-2-ylmethylene]-4-oxo-2-thioxo-thiazolidin-3-yl}-cyclohexanecarboxylic acid], 11 to 40 µM; in that of `COc1ccc(C)cc1-c1ccc(C=C2SC(=S)N(C3CCC(C(=O)O)CC3)C2=O)o1` (centres unmarked) [Compound C75, 4-{5-[5-(2-Methoxy-5-methyl-phenyl)-furan-2-ylmethylene]-4-oxo-2-thioxo-thiazolidin-3-yl}-cyclohexanecarboxylic acid], 11 to 40 µM.
Regarding `CC(=O)Nc1ccc(-c2ccc(C=C3SC(=S)N(C4CCC(C(=O)O)CC4)C3=O)o2)cc1` (centres unmarked) [Compound C76, 4-{5-[1-[5-(4-acetylamino-phenyl)-furan-2-yl]-methylidene]-4-oxo-2-thioxo-thiazolidin-3-yl}-cyclohexanecarboxylic acid], the IC50 was < 10 µM.
In the case of `CCCCc1ccc(-c2ccc(C=C3SC(=S)N(C4CCCC(C(=O)O)C4)C3=O)o2)cc1` (centres unmarked) [Compound C77, 3-{5-[1-[5-(4-butyl-phenyl)-furan-2-yl]-methylidene]-4-oxo-2-thioxo-thiazolidin-3-yl}-cyclohexanecarboxylic acid] it was < 10 µM.
For `CCCCc1ccc(-c2ccc(C=C3SC(=S)N(C4CCC(C(=O)O)CC4)C3=O)o2)cc1` (centres unmarked) [Compound C78, 4-{5-[1-[5-(4-butyl-phenyl)-furan-2-yl]-methylidene]-4-oxo-2-thioxo-thiazolidin-3-yl}-cyclohexanecarboxylic acid], the 50% inhibitory concentration (IC50) is < 10 µM.
The figure for `CCCc1ccc(-c2ccc(C=C3SC(=S)N(C4CCCC(C(=O)O)C4)C3=O)o2)cc1` (centres unmarked) [Compound C79, 3-{5-[1-[5-(4-propyl-phenyl)-furan-2-yl]-methylidene]-4-oxo-2-thioxo-thiazolidin-3-yl}-cyclohexanecarboxylic acid] is 11 to 40 µM; for `CCCc1ccc(-c2ccc(C=C3SC(=S)N(C4CCC(C(=O)O)CC4)C3=O)o2)cc1` (centres unmarked) [Compound C80, 4-{5-[1-[5-(4-propyl-phenyl)-furan-2-yl]-methylidene]-4-oxo-2-thioxo-thiazolidin-3-yl}-cyclohexanecarboxylic acid] it is 11 to 40 µM.
In turn, `CNS(=O)(=O)c1ccc(-c2ccc(C=C3SC(=S)N(C4CCCC(C(=O)O)C4)C3=O)o2)cc1` (centres unmarked) [Compound C83, 3-{5-[5-(4-Methylsulfamoyl-phenyl)-furan-2-ylmethylene]-4-oxo-2-thioxo-thiazolidin-3-yl}-cyclohexanecarboxylic acid] had a 50% inhibitory concentration (IC50) of 11 to 40 µM.
Turning to `CNS(=O)(=O)c1ccc(-c2ccc(C=C3SC(=S)N(C4CCC(C(=O)O)CC4)C3=O)o2)cc1` (centres unmarked) [Compound C84, 4-{5-[5-(4-Methylsulfamoyl-phenyl)-furan-2-ylmethylene]-4-oxo-2-thioxo-thiazolidin-3-yl}-cyclohexanecarboxylic acid], the 50% inhibitory concentration (IC50) is < 10 µM.
The figure for `CN(C)S(=O)(=O)c1ccc(-c2ccc(C=C3SC(=S)N(C4CCCC(C(=O)O)C4)C3=O)o2)cc1` (centres unmarked) [Compound C85, 3-{5-[5-(4-Dimethylsulfamoyl-phenyl)-furan-2-ylmethylene]-4-oxo-2-thioxo-thiazolidin-3-yl}-cyclohexanecarboxylic acid] is 41 to 80 µM; for `CN(C)S(=O)(=O)c1ccc(-c2ccc(C=C3SC(=S)N(C4CCC(C(=O)O)CC4)C3=O)o2)cc1` (centres unmarked) [Compound C86, 4-{5-[5-(4-Dimethylsulfamoyl-phenyl)-furan-2-ylmethylene]-4-oxo-2-thioxo-thiazolidin-3-yl}-cyclohexanecarboxylic acid] it is 11 to 40 µM; for `O=C(O)c1ccccc1NN1C(=O)C(=Cc2ccc(-c3ccccc3Cl)o2)SC1=S` [Compound D1, 2-{5-[1-[5-(2-chloro-phenyl)-furan-2-yl]-methylidene]-4-oxo-2-thioxo-thiazolidin-3-ylamino}-benzoic acid] it is < 10 µM.
As for `O=C(O)c1ccccc1NN1C(=O)C(=Cc2ccc(-c3cccc(C(F)(F)F)c3)o2)SC1=S` [Compound D3, 2-{4-oxo-2-thioxo-5-[1-[5-(3-trifluoromethyl-phenyl)-furan-2-yl]-methylidene]-thiazolidin-3-ylamino}-benzoic acid], the IC50 was < 10 µM.
In the case of `O=C(O)c1ccccc1NN1C(=O)C(=Cc2ccc(-c3cccc([N+](=O)[O-])c3)o2)SC1=S` [Compound D4, 2-{5-[1-[5-(3-nitro-phenyl)-furan-2-yl]-methylidene]-4-oxo-2-thioxo-thiazolidin-3-ylamino}-benzoic acid] it was < 10 µM.
The figure for `CC(C)(C)c1ccc(O)c(-c2ccc(C=C3SC(=S)N(Nc4ccccc4C(=O)O)C3=O)o2)c1` [Compound D5, 2-{5-[1-[5-(5-tert-butyl-2-hydroxy-phenyl)-furan-2-yl]-methylidene]-4-oxo-2-thioxo-thiazolidin-3-ylamino}-benzoic acid] is < 10 µM.
In the case of `O=C(O)c1ccccc1NN1C(=O)C(=Cc2ccc(-c3ccc(F)cc3F)o2)SC1=S` [Compound D7, 2-{5-[1-[5-(2,4-difluoro-phenyl)-furan-2-yl]-methylidene]-4-oxo-2-thioxo-thiazolidin-3-ylamino}-benzoic acid] it was < 10 µM; in that of `Cc1ccc(-c2ccc(C=C3SC(=S)N(Nc4ccccc4C(=O)O)C3=O)o2)c(C)c1` [Compound D8, 2-{5-[1-[5-(2,4-dimethyl-phenyl)-furan-2-yl]-methylidene]-4-oxo-2-thioxo-thiazolidin-3-ylamino}-benzoic acid], < 10 µM.
For the compound `COc1ccc(-c2ccc(C=C3SC(=S)N(Nc4ccccc4C(=O)O)C3=O)o2)c(C)c1` [Compound D9, 2-{5-[1-[5-(4-methoxy-2-methyl-phenyl)-furan-2-yl]-methylidene]-4-oxo-2-thioxo-thiazolidin-3-ylamino}-benzoic acid], the half-maximal inhibitory concentration (IC50) was < 10 µM.
In the case of `Cc1cc(F)ccc1-c1ccc(C=C2SC(=S)N(Nc3ccccc3C(=O)O)C2=O)o1` [Compound D10, 2-{5-[1-[5-(4-fluoro-2-methyl-phenyl)-furan-2-yl]-methylidene]-4-oxo-2-thioxo-thiazolidin-3-ylamino}-benzoic acid] it was < 10 µM.
The figure for `Cc1ccc(-c2ccc(C=C3SC(=S)N(Nc4ccccc4C(=O)O)C3=O)o2)c(F)c1` [Compound D11, 2-{5-[1-[5-(2-fluoro-4-methyl-phenyl)-furan-2-yl]-methylidene]-4-oxo-2-thioxo-thiazolidin-3-ylamino}-benzoic acid] is < 10 µM; for `O=C(O)c1ccccc1NN1C(=O)C(=Cc2ccc(-c3ccccc3O)o2)SC1=S` [Compound D12, 2-{5-[1-[5-(2-Hydroxy-phenyl)-furan-2-yl]-methylidene]-4-oxo-2-thioxo-thiazolidin-3-ylamino}-benzoic acid] it is < 10 µM.

The values are drawn from US8338465B2, “Cyclic carboxylic acid rhodanine derivatives for the treatment and prevention of tuberculosis” (priority 2006, dated 2012).
